Measured values published in patent US20250186554A1, “FORMULATIONS COMPRISING ACID-NEUTRALIZING POLYMER FOR ORAL ADMINISTRATION OF GLUCAGON-LIKE PEPTIDE-1 AND ANALOGS THEREOF” (Entera Bio Ltd., priority 2022, published 2025).

Legend:
[1] = pH upon addition of test substance to 0.1 M HCl solution (pH 1.2), pH meter; assay type: physicochemical
Description: Test substances were dissolved in various volumes of 0.1 M HCl solution (pH 1.2) at concentrations of 1, 2, 4, 10, 20, 50, 100 and 150 mg/ml. The solution pH was determined using an MP-103 pH-meter (MRC, Israel) equipped with ELC-10-00 electrode (MRC, Israel) or with a thin electrode HI1083 (HANNA instruments Inc.), shortly after dissolution and up to 26 hours later in order to ensure that the pH remained stable. The highest pH value obtained during the experimental time period was recorded in order to compare the acid-neutralizing capacity of each substance.
SNAC and the basic polymers sodium alginate, sodium carboxymethylcellulose in non-crosslinked (Na-CMC) and crosslinked (croscarmellose sodium, CCS) forms, and sodium starch glycolate (SSG) were dissolved in various volumes of 0.1 M HCl solution (pH 1.2) at concentrations of 1, 2, 4, 10, 20, 50, 100 and 150 mg/ml, and the solution pH was determined using an MP-103 pH-meter (MRC, Israel) equipped with ELC-10-00 electrode (MRC, Israel), as described in the Materials and Methods section hereinabove.
In order to obtain a beneficial rise in pH with a reduced loss of the active form of the absorption enhancer, the effect of various concentrations of different polymers containing carboxylate groups (sodium alginate, sodium starch glycolate, sodium carboxymethylcellulose, and croscarmellose sodium) on pH upon addition to a 0.1 M HCl solution (pH 1.2) was also evaluated. FIG. 2A presents pH values determined using an MP-103 pH-meter (MRC, Israel) equipped with ELC-10-00 electrode (MRC, Israel) and FIG. 2B presents pH values determined using an MP-103 pH-meter (MRC, Israel) equipped with a thin electrode HI1083 (HANNA instruments Inc.).

[2] = in vivo; cited from earlier work

| Molecule | pH 5 minutes after dissolution ([1]; 10 mg/ml SNAC added to HCl solution (pH 1.2)) | pH 5 minutes after dissolution ([1]; 20 mg/ml SNAC added to HCl solution (pH 1.2)) | pH 5 minutes after dissolution ([1]; 100 mg/ml SNAC added to HCl solution (pH 1.2)) | half-life [2] |
| --- | --- | --- | --- | --- |
| O=C(O)CCCCCCCNC(=O)c1ccccc1O [SNAC, sodium 8-N-(2-hydroxybenzoyl)aminocaprylate] | about 1.5 | 6.5 | about 7.5 | – |
| Semaglutide: fatty acid derivative of a GLP-1 homolog | – | – | – | about 7 days |
